Values joined by “and” are separate entries in the source; they are usually repeats but may differ in a detail not shown here. Equal entries are not always repeated. “Also recorded” adds a separate entry of the source. Where two headings read alike, the source gives them in different places.
Tests used:
E. coli PBP1b [1] = molecular target: T1, E. coli PBP1b (Escherichia coli, UniProt P02919); assay: GTase inhibition assay: residual activity and IC50 of PBP1b (radioactive lipid II endpoint TLC assay, dansyl-lipid II continuous fluorescence assay); format: biochemical; settings: up to 5 mM (1-5 mM), below CMC
T1 construct: PBP1bγ(M46-N844) was purified as previously described; made in house
T1 sequence (P02919 46-844): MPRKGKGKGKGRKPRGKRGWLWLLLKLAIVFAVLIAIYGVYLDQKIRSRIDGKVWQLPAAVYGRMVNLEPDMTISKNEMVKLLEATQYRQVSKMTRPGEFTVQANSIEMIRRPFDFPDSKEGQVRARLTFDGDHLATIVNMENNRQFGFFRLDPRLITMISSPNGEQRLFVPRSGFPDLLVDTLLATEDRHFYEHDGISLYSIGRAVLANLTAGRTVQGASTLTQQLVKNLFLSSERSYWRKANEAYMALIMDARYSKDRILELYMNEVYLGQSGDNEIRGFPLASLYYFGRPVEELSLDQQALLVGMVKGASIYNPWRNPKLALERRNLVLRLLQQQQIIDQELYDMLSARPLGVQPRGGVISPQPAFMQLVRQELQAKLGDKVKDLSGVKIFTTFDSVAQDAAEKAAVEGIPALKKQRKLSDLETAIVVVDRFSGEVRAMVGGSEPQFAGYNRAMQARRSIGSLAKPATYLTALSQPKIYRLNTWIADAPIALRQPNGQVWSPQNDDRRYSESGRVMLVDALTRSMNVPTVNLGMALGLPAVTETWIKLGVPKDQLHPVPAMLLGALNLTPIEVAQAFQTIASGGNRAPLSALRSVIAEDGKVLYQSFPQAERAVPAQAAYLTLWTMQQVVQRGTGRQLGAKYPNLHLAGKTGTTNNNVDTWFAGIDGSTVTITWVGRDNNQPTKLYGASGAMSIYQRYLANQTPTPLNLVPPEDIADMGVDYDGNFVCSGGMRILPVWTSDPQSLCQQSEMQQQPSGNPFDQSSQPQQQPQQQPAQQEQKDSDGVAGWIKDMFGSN

E. coli PBP1b [2] = molecular target: T1, E. coli PBP1b; assay: as above; format: biochemical; settings: for RA % (0.4 mM), residual GTase activity of PBP1b: compound 0.4 mM (400 µM); for RA % (0.4 mM), residual GTase activity of PBP1b / RA % (0.8 mM), residual GTase activity of PBP1b / remaining activity at 800 µM: compared to nontreated control; for RA % (0.8 mM), residual GTase activity of PBP1b: compound 0.8 mM (800 µM); for remaining activity at 800 µM: read-out: RA % (0.8 mM), residual GTase activity of PBP1b, compound 0.8 mM (800 µM)
Method: The continuous fluorescence GTase activity assay of PBP1b was performed using dansyl lipid II as substrate as described.
The end-point assay, based on radiolabeled lipid II ([^14C]lipid II), was performed in 30 µL in the same conditions as the fluorescence assay using 4 µM [^14C]lipid II (0.06 µCi/nmol) instead of the fluorescent substrate and by omitting the muramidase. The reaction was incubated 15 min at 30 °C, stopped by heating at 80 °C for 10min and the products were separated by thin-layer chromatography (TLC) on silica gel plates in 2-propanol–ammonium hydroxide (25%)–H2O (6:3:1; v/v/v).
The GTase inhibition assay was carried out by measuring the residual activity (RA) of E. coli PBP1b in the presence of 400 and 800 μM compounds. All the assays were repeated at least three times. The IC50 values were determined for the active compounds using variable concentrations of inhibitor (0−1000 μM) by fitting the data using GraphPad Prism 6.0 software.

PBP1b = molecular target: T2, PBP1b (Escherichia coli, UniProt P02919); assay: Fluorescence anisotropy competition assay, displacement of NBD-lipid II probe from PBP1b; format: binding; settings: NBD-lipid II 0.33 µM, PBP1b ~1 µM, serial dilutions of compound
T2 construct: PBP1bγ(M46-N844) was purified as previously described; made in house
T2 sequence (P02919 46-844): as above
Method: (§1) FA assay was performed as previously described. Briefly, fixed concentrations of NBD-lipid II (0.33 µM) and PBP1b (~1 µM) in the 25 mM Tris–HCl pH 7.5, NaCl 0.1 M, CHAPS 0.14% w/v, were mixed with serial dilutions of the compounds in 384-well plates. Measurement were performed using an Infinite F Plex (Tecan, Männedorf, Switzerland) microplate reader equipped with polarization filters with excitation and emission wavelengths at 485 and 535 nm respectively. All the experiments were performed in triplicates. For direct binding evaluation of the compounds with the probe, the experiments were performed in the same condition in the absence of the protein. FA values in millianisotropy units (mA) were plotted as a function of compound concentrations in µM as previously described.

[3] = Fluorescence anisotropy direct binding of compounds to the probe in the absence of the protein; settings: NBD-lipid II 0.33 µM, no protein
Method: as §1

S. aureus = tested on: S. aureus; parameters: method as in PMID 31063379; settings: cited from earlier work
E. coli = tested on: E. coli; parameters: method as in PMID 31063379; settings: cited from earlier work
[4] = mean of three experiments ± s.d.
[5] = variable inhibitor concentrations 0-1000 µM, mean of three experiments ± s.d., read-out: IC50, GTase activity of PBP1b

Compound	RA % (0.4 mM), residual GTase activity of PBP1b (E. coli PBP1b [2]; [4]) [%]	IC50 (E. coli PBP1b [2]; [5]) [µM]	remaining activity at 800 µM (E. coli PBP1b [2]; [4]) [%]	Inhibition of GTase activity of PBP1b (in words) (E. coli PBP1b [2]; concentration not given)	also measured
C[C@H](CCC(=O)NCCC[N+](C)(C)CCCS(=O)(=O)[O-])[C@H]1CCC2C3C(C[C@H](O)[C@@]21C)[C@@]1(C)CC[C@H](O)CC1C[C@H]3O (stereo partly drawn) [CHAPS]	–	–	–	–	Inhibition of PBP1b GTase activity (in words) (E. coli PBP1b [1]): no inhibition
CC(C)CCCC(C)C1CCC2C3C(NCCCCN)C=C4CC(O)CCC4(C)C3CCC12C (stereo not drawn) [Compound 2]	1.2 ± 0.3	114 ± 6	–	–	RA % (0.8 mM), residual GTase activity of PBP1b (E. coli PBP1b [2]; [4]): 0.3 ± 0.1%
CC(C)CCC[C@@H](C)[C@H]1CCC2C3C(CC[C@@]21C)[C@@]1(C)CC[C@H](O)CC1=C[C@@H]3NCCCNCCCCNCCCN (stereo partly drawn) [Compound 3]	16 ± 2	220 ± 10	8.5 ± 3.1	–	–
CC(C)CCC[C@@H](C)[C@H]1CCC2C3C(CC[C@@]21C)[C@@]1(C)CC[C@H](O)CC1C[C@@H]3NCCCN (stereo partly drawn) [Compound 4]	39 ± 2	303 ± 15	4 ± 1	–	–
CC(C)CCC[C@@H](C)[C@H]1CCC2C3C[C@@H](NCCCCN)C4C[C@@H](O)CC[C@]4(C)C3CC[C@@]21C (stereo partly drawn) [Compound 5, 6β-(1,4-diaminobutane)-cholestan-3β-ol]	16 ± 1.4	221 ± 26	3 ± 1	–	–
CC(C)CCC[C@@H](C)[C@H]1CCC2C3C[C@@H](NCCCNCCCCNCCCN)C4C[C@@H](O)CC[C@]4(C)C3CC[C@@]21C (stereo partly drawn) [Compound 6, 6β-(spermine)-cholestan-3β-ol]	3.9 ± 0.1	–	0.8 ± 0.4	–	Competition with lipid II for binding to PBP1b (change of FA of the probe) (PBP1b): able to compete; also recorded: decrease of the FA; Direct interaction between fluorescent lipid II and compound (FA) [3]: no significant interaction; IC50 (E. coli PBP1b [2]): 111 ± 6 µM
CC(C)CCCC(C)C1CCC2C3C(NCCCCN)C=C4CC(O)CCC4(C)C3CCC12C (stereo not drawn) [Compound 9]	–	–	–	almost inactive	RA % (0.8 mM), residual GTase activity of PBP1b (E. coli PBP1b [2]; [4]): 98% and 98 ± 1%
CC(=O)[C@H]1CC[C@H]2[C@@H]3CCC4=CC(=O)CC[C@]4(C)[C@H]3CC[C@]12C [Compound 12, progesterone, reference compound]	–	–	98 ± 1	do not inhibit	–
C[C@H](NCCCCN)[C@H]1CCC2C3CCC4=C[C@@H](NCCCCN)CC[C@]4(C)C3CC[C@@]21C (stereo partly drawn) [Compound 13]	–	–	100	absence of activity	Inhibition of GTase activity of PBP1b (in words) (E. coli PBP1b [2]; 0.8 mM compound, radioactive lipid II, endpoint TLC assay): inactive
C[C@]12CCC3c4ccc(O)cc4CCC3C1CC[C@@H]2NCCCCN (stereo partly drawn) [Compound 15, (13S,17S)-17-((4-aminobutyl)amino)-13-methyl-7,8,9,11,12,13,14,15,16,17-decahydro-6H-cyclopenta[a]phenanthren-3-ol]	–	–	105 ± 3	absence of activity	Competition with lipid II for binding to PBP1b (change of FA of the probe) (PBP1b): no effect; also recorded: does not affect the FA; Direct interaction between fluorescent lipid II and compound (FA) [3]: no significant interaction
CC(C)[C@@H](CC[C@@H](C)[C@H]1CC[C@H]2[C@@H]3[C@H](O)C[C@H]4C[C@@H](NCCCNCCCCN)CC[C@]4(C)[C@H]3CC[C@]12C)OS(=O)(=O)O [Squalamine (1), Squalamine]	6 ± 2	291 ± 26	1.1 ± 0.6	–	Competition with lipid II for binding to PBP1b (change of FA of the probe) (PBP1b): able to compete; also recorded: decrease of the FA; MIC (S. aureus): ~ 3 µg/mL; Direct interaction between fluorescent lipid II and compound (FA) [3]: no significant interaction; MIC (E. coli): ~ 3 µg/mL
N1,N1’-((3S,7R,10R,13R,17R)-10,13-dimethyl-17-((R)-5-methylhexan-2-yl)-tetradecahydro-1H-cyclopenta[a]phenanthrene-3,7-diyl)bis(pentane-1,5-diamine) [Compound 7]	12.5 ± 4.4	229 ± 17	–	–	RA % (0.8 mM), residual GTase activity of PBP1b (E. coli PBP1b [2]; [4]): 1.5 ± 0.8%

— article PMC7400108, “Squalamine and Aminosterol Mimics Inhibit the Peptidoglycan Glycosyltransferase Activity of PBP1b” (Antibiotics, 2020)
